In ChEMBL document CHEMBL1201862, “PubChem BioAssay data set” (2004):
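All cell lines were grown in 96-well plates and treated with compound for 48 hours. GI50: concentration for 50% inhibition of growth.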 The source made the active and inactive calls. Cut-off read from the data, not from the text of the source: active = GI50 up to about 1.1 µM and inactive = higher.

Columns and labels:
Test in all cases: NCI anticancer screen, dose series, 48 h
[1] = tested on: 786-0
[2] = tested on: A549
[3] = tested on: SW-620
[4] = tested on: SF-295
[5] = tested on: NCI/ADR-RES
[6] = tested on: HCT-116
[7] = tested on: Hs-578T
[8] = tested on: COLO 205
[9] = tested on: NCI-H23
[10] = tested on: SK-MEL-28
[11] = tested on: UO-31
[12] = tested on: SF-268
[13] = tested on: CCRF-CEM
[14] = tested on: MDA-N
[15] = tested on: SK-MEL-2
[16] = tested on: RPMI-8226
[17] = tested on: NCI-H460
[18] = tested on: CAKI-1
[19] = tested on: HOP-92
[20] = tested on: T47D
[21] = tested on: SK-OV-3
[22] = tested on: MDA-MB-435
[23] = tested on: DU-145
[24] = tested on: RXF 393
[25] = tested on: EKVX
[26] = tested on: MCF7
[27] = tested on: BT-549
[28] = tested on: MDA-MB-231
[29] = tested on: IGROV-1
[30] = tested on: SNB-75
[31] = tested on: A498
[32] = tested on: SR
[33] = tested on: Malme-3M
[34] = tested on: M14
[35] = tested on: HL-60
[36] = tested on: HOP-62
[37] = tested on: OVCAR-8
[38] = tested on: OVCAR-5
[39] = tested on: SNB-19
[40] = tested on: HT-29
[41] = tested on: MOLT-4
[42] = tested on: NCI-H522
[43] = tested on: SN12C
[44] = tested on: OVCAR-4
[45] = tested on: HCC 2998
[46] = tested on: SK-MEL-5
[47] = tested on: PC-3
[48] = tested on: LOX IMVI
[49] = tested on: K562
[50] = tested on: KM12
[51] = tested on: UACC-257
[52] = tested on: TK-10
[53] = tested on: ACHN
[54] = tested on: OVCAR-3
[55] = tested on: U-251
[56] = tested on: HCT-15
[57] = tested on: SF-539
[58] = tested on: NCI-H226
[59] = tested on: UACC-62

For `CCC1=[N+](CC)CCN1CC`, the GI50 [1] was > 100 µM (inactive), the GI50 [2] was > 100 µM (inactive) and the GI50 [3] was > 100 µM (inactive). The GI50 [4] was > 100 µM (inactive), the GI50 [5] was > 100 µM (inactive) and the GI50 [6] was > 100 µM (inactive). For the same molecule, the GI50 [7] was > 100 µM (inactive), the GI50 [8] was > 100 µM (inactive) and the GI50 [9] was > 100 µM (inactive). The GI50 [10] was > 100 µM (inactive), the GI50 [11] was > 100 µM (inactive) and the GI50 [12] was > 100 µM (inactive). The GI50 [13] was > 100 µM (inactive), the GI50 [14] was > 100 µM (inactive) and the GI50 [15] was > 100 µM (inactive). For the same molecule, the GI50 [16] was > 100 µM (inactive), the GI50 [17] was > 100 µM (inactive) and the GI50 [18] was > 100 µM (inactive). The GI50 [19] was > 100 µM (inactive), the GI50 [20] was > 100 µM (inactive) and the GI50 [21] was > 100 µM (inactive). For the same molecule, the GI50 [22] was > 100 µM (inactive), the GI50 [23] was > 100 µM (inactive) and the GI50 [24] was > 100 µM (inactive). The GI50 [25] was > 100 µM (inactive), the GI50 [26] was > 100 µM (inactive) and the GI50 [27] was > 100 µM (inactive). For the same molecule, the GI50 [28] was > 100 µM (inactive), the GI50 [29] was > 100 µM (inactive) and the GI50 [30] was > 100 µM (inactive). For the same molecule, the GI50 [31] was > 100 µM (inactive), the GI50 [32] was > 100 µM (inactive) and the GI50 [33] was > 100 µM (inactive). The GI50 [34] was > 100 µM (inactive), the GI50 [35] was > 100 µM (inactive) and the GI50 [36] was > 100 µM (inactive). For the same molecule, the GI50 [37] was > 100 µM (inactive), the GI50 [38] was > 100 µM (inactive) and the GI50 [39] was > 100 µM (inactive). For the same molecule, the GI50 [40] was > 100 µM (inactive), the GI50 [41] was > 100 µM (inactive) and the GI50 [42] was > 100 µM (inactive). The GI50 [43] was > 100 µM (inactive), the GI50 [44] was > 100 µM (inactive) and the GI50 [45] was > 100 µM (inactive). For the same molecule, the GI50 [46] was > 100 µM (inactive), the GI50 [47] was > 100 µM (inactive) and the GI50 [48] was > 100 µM (inactive). The GI50 [49] was > 100 µM (inactive), the GI50 [50] was > 100 µM (inactive) and the GI50 [51] was > 100 µM (inactive). For the same molecule, the GI50 [52] was > 100 µM (inactive), the GI50 [53] was > 100 µM (inactive) and the GI50 [54] was > 100 µM (inactive). For the same molecule, the GI50 [55] was > 100 µM (inactive), the GI50 [56] was greater than 100 µM and the GI50 [57] was > 100 µM (inactive). The GI50 [58] was > 100 µM (inactive).

With `COc1cccc2c(=O)oc(-c3ccc(C(C)(C)C)cc3)nc12` the GI50 [1] was > 100 µM (inactive), the GI50 [2] was 85.1 µM (inactive) and the GI50 [3] was 55.2 µM (inactive). For the same molecule, the GI50 [4] was 69.7 µM (inactive), the GI50 [5] was 54.8 µM (inactive) and the GI50 [6] was 49.9 µM (inactive). The GI50 [7] was 79.3 µM (inactive), the GI50 [8] was 57 µM (inactive) and the GI50 [9] was > 100 µM (inactive). The GI50 [10] was > 100 µM (inactive), the GI50 [11] was > 100 µM (inactive) and the GI50 [12] was 84.9 µM (inactive). The GI50 [13] was 33.7 µM (inactive), the GI50 [14] was 76.7 µM (inactive) and the GI50 [15] was 44 µM (inactive). For the same molecule, the GI50 [16] was 34.3 µM (inactive), the GI50 [17] was 65.8 µM (inactive) and the GI50 [18] was 35.8 µM (inactive). The GI50 [19] was 41.6 µM (inactive), the GI50 [20] was 80.4 µM (inactive) and the GI50 [21] was 80.9 µM (inactive). The GI50 [22] was 59.7 µM (inactive), the GI50 [23] was > 100 µM (inactive) and the GI50 [24] was 49.3 µM (inactive). For the same molecule, the GI50 [25] was 63.7 µM (inactive), the GI50 [26] was 57 µM (inactive) and the GI50 [27] was 44 µM (inactive). For the same molecule, the GI50 [28] was 58.1 µM (inactive), the GI50 [29] was 45.1 µM (inactive) and the GI50 [30] was 23.9 µM (inactive). For the same molecule, the GI50 [31] was > 100 µM (inactive), the GI50 [32] was 26.1 µM (inactive) and the GI50 [33] was > 100 µM (inactive). For the same molecule, the GI50 [34] was 82 µM (inactive), the GI50 [35] was 18.5 µM (inactive) and the GI50 [36] was 48.2 µM (inactive). The GI50 [37] was 39.7 µM (inactive), the GI50 [38] was > 100 µM (inactive) and the GI50 [39] was > 100 µM (inactive). The GI50 [40] was 41.7 µM (inactive), the GI50 [41] was 22.7 µM (inactive) and the GI50 [42] was 30.1 µM (inactive). The GI50 [43] was 96.8 µM (inactive), the GI50 [44] was 53.6 µM (inactive) and the GI50 [45] was 0.447 µM (active). For the same molecule, the GI50 [46] was 28.8 µM (inactive), the GI50 [47] was > 100 µM (inactive) and the GI50 [48] was 22.5 µM (inactive). For the same molecule, the GI50 [49] was > 100 µM (inactive), the GI50 [50] was 32.4 µM (inactive) and the GI50 [51] was > 100 µM (inactive). The GI50 [52] was > 100 µM (inactive), the GI50 [53] was > 100 µM (inactive) and the GI50 [54] was 29.9 µM (inactive). The GI50 [55] was 42.2 µM (inactive), the GI50 [59] was > 100 µM (inactive) and the GI50 [56] was 65.5 µM. The GI50 [57] was > 100 µM (inactive).
